Test results: article PMC10087438 (The Febs Journal, 2022)
Each block holds one molecule with its values, some of them ahead of it.

Tests used:
[1] = target: T1, PaNADK (NAD kinase from Pseudomonas aeruginosa) (Pseudomonas aeruginosa, UniProt Q9HZC0); experiment: X-ray crystal structure, […] Å; format: binding
T1 sequence (Q9HZC0 1-295): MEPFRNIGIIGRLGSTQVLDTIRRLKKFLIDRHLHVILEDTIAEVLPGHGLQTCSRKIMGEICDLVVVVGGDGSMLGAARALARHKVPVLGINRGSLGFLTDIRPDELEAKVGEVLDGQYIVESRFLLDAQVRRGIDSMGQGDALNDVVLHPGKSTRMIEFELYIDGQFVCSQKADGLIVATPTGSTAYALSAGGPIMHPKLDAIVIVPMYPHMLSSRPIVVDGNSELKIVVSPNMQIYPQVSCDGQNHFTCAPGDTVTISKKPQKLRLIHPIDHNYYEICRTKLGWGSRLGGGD

[2] = target: T2, LmNADK (NADK 1 from Listeria monocytogenes) (Listeria monocytogenes, UniProt Q8Y8D7); experiment: enzyme inhibition; format: biochemical
T2 sequence (Q8Y8D7 1-264): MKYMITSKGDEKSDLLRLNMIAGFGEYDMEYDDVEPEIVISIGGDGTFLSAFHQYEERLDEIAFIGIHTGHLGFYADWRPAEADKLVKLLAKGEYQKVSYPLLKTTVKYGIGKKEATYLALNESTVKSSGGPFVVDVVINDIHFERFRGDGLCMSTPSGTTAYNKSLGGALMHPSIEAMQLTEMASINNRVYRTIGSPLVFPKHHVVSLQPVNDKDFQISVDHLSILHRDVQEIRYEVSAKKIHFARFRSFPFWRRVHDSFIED

[3] = target: T1, PaNADK (NAD kinase from Pseudomonas aeruginosa); experiment: G6PDH-coupled enzyme assay, global competitive inhibition fit; format: biochemical
purified protein [4] = substrate: NC(=O)c1ccc[n+]([C@@H]2O[C@H](COP(=O)([O-])OP(=O)(O)OC[C@H]3O[C@@H](n4cnc5c(N)ncnc54)[C@H](O)[C@@H]3O)[C@@H](O)[C@H]2O)c1; experiment: purified protein; conditions: MgATP
purified protein [5] = substrate: Nc1ncnc2c1ncn2[C@@H]1O[C@H](COP(=O)(O)OP(=O)(O)OP(=O)(O)O)[C@@H](O)[C@H]1O; experiment: purified protein; conditions: Mg2+

Molecule: NC(=O)c1ccc[n+]([C@@H]2O[C@H](COP(=O)([O-])OP(=O)(O)OC[C@H]3O[C@@H](n4cnc5c(N)ncnc54)[C@H](OP(=O)(O)O)[C@@H]3O)[C@@H](O)[C@H]2O)c1 [NADP^+]
X-ray crystal structure, 2.3 Å [1]: we determined the atomic structure of the protein bound to NADP^+ by X‐ray crystallography

Ki [2]: 3.2 ± 0.4 µM
Ki [3]: 4.6 ± 0.3 µM
Molecule: NC(=O)c1cccc([C@@H]2O[C@H](COCC#Cc3nc4c(N)ncnc4n3[C@@H]3O[C@H](CO)[C@@H](O)[C@H]3O)[C@@H](O)[C@H]2O)c1 [compound 1, 5‐O ‐[3‐(adenosin‐8‐yl)prop‐2‐yn‐1‐yl]‐1‐deoxy‐1‐(3‐carbamoylphenyl)‐β‐D‐ribofuranose]

B1: PaNADK (NAD kinase from Pseudomonas aeruginosa) (Pseudomonas aeruginosa PAO1) (protein)
chain: MEPFRNIGIIGRLGSTQVLDTIRRLKKFLIDRHLHVILEDTIAEVLPGHGLQTCSRKIMGEICDLVVVVGGDGSMLGAARALARHKVPVLGINRGSLGFLTDIRPDELEAKVGEVLDGQYIVESRFLLDAQVRRGIDSMGQGDALNDVVLHPGKSTRMIEFELYIDGQFVCSQKADGLIVATPTGSTAYALSAGGPIMHPKLDAIVIVPMYPHMLSSRPIVVDGNSELKIVVSPNMQIYPQVSCDGQNHFTCAPGDTVTISKKPQKLRLIHPIDHNYYEICRTKLGWGSRLGGGD
Km (purified protein [4]): 0.15 mM
Km (purified protein [5]): 2 mM
